Test results: ChEMBL document CHEMBL5653610, “The novel phosphodiesterase 10A inhibitor THPP-1 has antipsychotic-like effects in rat and improves cognition in rat and rhesus monkey” (Neuropharmacology, 2013)
Active and inactive are the calls of the source. The calls are words filed in the database; no cut-off is given here.

Experiments:
[1] = Total drug level in Wistar Hannover rat plasma at 10 mg/kg, po after 2 hrs by UPLC-MS analysis; type: ADME, organism-based
[2] = Half life in orally dosed rat after 2 hrs by UPLC-MS analysis; type: ADME, organism-based; conditions: in vivo, route po
[3] = Drug level in Wistar Hannover rat CSF at 30 mg/kg, po after 2 hrs by UPLC-MS analysis; type: ADME, organism-based, Cerebrospinal fluid; conditions: read-out: Drug uptake
Rattus norvegicus [4] = assay: Effect on total levels of GluR1 protein in membrane fraction of Wistar Hannover rat striatal tissues at 3 to 30 mg/kg, po by Western blot analysis; type: functional, organism-based; conditions: Striatum, dose 3-30 mg/kg
Rhesus monkey [5] = assay: Antipsychotic activity in rhesus monkey assessed as blocking of ketamine impaired performance on difficult trials at 3 mg/kg, po dosed for 4 days prior to testing and on day 5 drug was administered orally 2 h prior to testing by object retrieval detour task; type: functional, organism-based; conditions: Macaca mulatta, time 5.0 day
Rattus norvegicus [6] = assay: Effect on concentration of cyclic nucleotides in Wistar Hannover rat striatal tissues at 3 to 30 mg/kg, po by Western blot analysis; type: functional, organism-based; conditions: Striatum, dose 3-30 mg/kg
Rattus norvegicus [7] = assay: In-vivo increase of ERK in membrane fraction of Wistar Hannover rat striatal tissues at 30 mg/kg, po after 2 hrs by Western blot analysis relative to control; type: functional, organism-based; conditions: Striatum
[8] = Protein binding in orally dosed rhesus monkey plasma after 4 hrs by UPLC-MS analysis; type: ADME, organism-based, Macaca mulatta; conditions: route po, read-out: PPB (converted)
[9] = Unbound drug level in plasma of Wistar Hannover rat engaged in object retrieval detour task at 3 mg/kg, po dosed for 4 days prior to testing and on day 5 drug was administered orally 2 h prior to testing and measured after 4 hrs by UPLC-MS analysis; type: ADME, organism-based; conditions: in vivo, 120 h, time 5 day
[10] = Total drug level in plasma of Wistar Hannover rat not-engaged in object retrieval detour task at 10 mg/kg, po dosed for 4 days prior to testing and on day 5 drug was administered orally 2 h prior to testing and measured after 4 hrs by UPLC-MS analysis; type: ADME, organism-based; conditions: time 5 day
[11] = Half life in orally dosed rhesus monkey after 4 hrs by UPLC-MS analysis; type: ADME, organism-based, Macaca mulatta; conditions: in vivo, route po
[12] = Clearance in orally dosed dog after 2 hrs by UPLC-MS analysis; type: ADME, organism-based, Canis lupus familiaris; conditions: in vivo, route po
Rattus norvegicus [13] = assay: Effect on phosphorylation of proteins in other brain regions (prefrontal cortex and hippocampus) in Wistar Hannover rat at 3 to 30 mg/kg, po by Western blot analysis; type: functional, organism-based; conditions: dose 3-30 mg/kg
[14] = Protein binding in orally dosed rat plasma after 2 hrs by UPLC-MS analysis; type: ADME, organism-based; conditions: route po, read-out: PPB (converted)
[15] = Total drug level in plasma of […] engaged in object retrieval detour task at 10 mg/kg, po dosed for 4 days prior to testing and on day 5 drug was administered orally 2 h prior to testing and measured after 4 hrs by UPLC-MS analysis; type: ADME, organism-based; conditions: time 5 day
[16] = Unbound drug level in Wistar Hannover rat plasma at 1 mg/kg, po after 2 hrs by UPLC-MS analysis; type: ADME, organism-based; conditions: in vivo
[17] = Unbound drug level in Wistar Hannover rat plasma at 10 mg/kg, po after 2 hrs by UPLC-MS analysis; type: ADME, organism-based; conditions: in vivo
[18] = Total drug level in Wistar Hannover rat plasma at 0.1 mg/kg, po after 2 hrs by UPLC-MS analysis; type: ADME, organism-based
[19] = Protein binding in orally dosed dog plasma after 2 hrs by UPLC-MS analysis; type: ADME, organism-based, Canis lupus familiaris; conditions: route po, read-out: PPB (converted)
[20] = Total drug level in plasma of Wistar Hannover rat engaged in object retrieval detour task at 3 mg/kg, po dosed for 4 days prior to testing and on day 5 drug was administered orally 2 h prior to testing and measured after 4 hrs by UPLC-MS analysis; type: ADME, organism-based; conditions: time 5 day
[21] = Drug level in Wistar Hannover rat CSF at 3 mg/kg, po after 2 hrs by UPLC-MS analysis; type: ADME, organism-based, Cerebrospinal fluid; conditions: read-out: Drug uptake
[22] = Unbound drug level in plasma of Wistar Hannover rat not-engaged in object retrieval detour task at 10 mg/kg, po dosed for 4 days prior to testing and on day 5 drug was administered orally 2 h prior to testing and measured after 4 hrs by UPLC-MS analysis; type: ADME, organism-based; conditions: in vivo, 120 h, time 5 day
[23] = Drug level in Wistar Hannover rat CSF at 0.3 mg/kg, po after 2 hrs by UPLC-MS analysis; type: ADME, organism-based, Cerebrospinal fluid; conditions: read-out: Drug uptake
Rattus norvegicus [24] = assay: Antipsychotic activity in Wistar Hannover rat assessed as reduction in conditioned avoidance responding at 1 to 3 mg/kg, po dosed 120 mins before testing; type: functional, organism-based; conditions: dose 1-3 mg/kg
Rhesus monkey [25] = assay: Antipsychotic activity in rhesus monkey assessed as attenuation of ketamine impaired performance on difficult trials at 3 mg/kg, po dosed for 4 days prior to testing and on day 5 drug was administered orally 2 h prior to testing by object retrieval detour task; type: functional, organism-based; conditions: Macaca mulatta, time 4.0 day
[26] = Drug level in Wistar Hannover rat CSF at 1 mg/kg, po after 2 hrs by UPLC-MS analysis; type: ADME, organism-based, Cerebrospinal fluid; conditions: read-out: Drug uptake
Rattus norvegicus [27] = assay: In-vivo increase of GluR1 S845 phosphorylation in membrane fraction of Wistar Hannover rat striatal tissues at 30 mg/kg, po after 2 hrs by Western blot analysis relative to control; type: functional, Striatum

concentration at 2 h [1]: 1320 nM | half-life [2]: 1.4 h | concentration at 2 h [3]: 20.1 nM | fraction unbound at 4 h [8]: 0.012 | Cp(f) [9]: 7 nM | concentration at 120 h [10]: 2820 nM | half-life [11]: 1.4 h | CL/F [12]: 3.8 mL/min/kg | fraction unbound at 2 h [14]: 0.018 | concentration at 120 h [15]: 1600 nM | Cp(f) [16]: 4.9 nM | Cp(f) [17]: 23.8 nM | concentration at 2 h [18]: 32 nM | fraction unbound at 2 h [19]: 0.03 | concentration at 120 h [20]: 592 nM | concentration at 2 h [21]: 8.3 nM | Cp(f) [22]: 34 nM | concentration at 2 h [23]: 3 nM | concentration at 2 h [26]: 4.2 nM
SMILES: COCCOc1nc(-c2ccc(Cl)nc2)nc2c1CN(C(=O)c1ncn3ccccc13)CC2 [THPP-1]
Activity (Rattus norvegicus [4]): inactive | Activity (Rhesus monkey [5]): inactive | Activity (Rattus norvegicus [6]): inactive | Activity (Rattus norvegicus [7]): Dose-Dependent Effect | Activity (Rattus norvegicus [13]): inactive | Activity (Rattus norvegicus [24]): Dose-Dependent Effect | Activity (Rhesus monkey [25]): Active | fold change (FC) (Rattus norvegicus [27]): 9.5
